Measured values reported in patent US20240368177A1, “5-AMINO-6,8-DIHYDRO-1H-FURO[3,4-d]PYRROLO[3,2-b]PYRIDINE-2-CARBOXAMIDE DERIVATIVES AS MTA-COOPERATIVE INHIBITORS OF PRMT5” (BeiGene Switzerland GmbH, priority 2023, published 2024).

Tests used:
[1] = tested on: HCT116-MTAP-KO; assay: Cell killing in HCT116 isogenic pair (Cell Titer-Glo viability), MTAP knock-out cells; format: cell-based, human; conditions: Homo sapiens, HCT-116, 144 h, 6 days incubation, 0-10 μM, * = more than 50% viability inhibition at tested concentration without a full curve
In short: (§1)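 Viability was read by CellTiter-Glo luminescence after 6 days of compound treatment (0–10 μM final, 37° C, 5% CO2), and IC50 values were fitted. The isogenic HCT116 pair, MTAP-KO clone versus mock-KO MTAP-wildtype, was grown in RPMI 1640 plus 10% FBS and seeded the day before.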

[2] = tested on: HCT116-mock-RNA-KO; assay: Cell killing in HCT116 isogenic pair (Cell Titer-Glo viability), mock knock-out cells with MTAP wildtype genotype; format: cell-based, human; conditions: Homo sapiens, HCT-116, 144 h, 6 days incubation, 0-10 μM
In short: as §1

Compound | IC50 [1] [nM] | IC50 [2] [nM]
CCN(C(=O)c1cc2nc(N)c3c(c2[nH]1)COC3)[C@@H]1CO[C@H](C)c2cc(C(F)(F)F)ccc21 [Example 89, 5-amino-N-ethyl-N-((1R,4S)-1-methyl-7-(trifluoromethyl)isochroman-4-yl)-6,8-dihydro-1H-furo[3,4-d]pyrrolo[3,2-b]pyridine-2-carboxamide] | 4.1 | 446
CC(=O)N1CC[C@@H](N(C)C(=O)c2cc3nc(N)c4c(c3[nH]2)COC4)c2ccc(C(F)(F)F)cc21 [Example 90, (R)—N-(1-acetyl-7-(trifluoromethyl)-1,2,3,4-tetrahydroquinolin-4-yl)-5-amino-N-methyl-6,8-dihydro-1H-furo[3,4-d]pyrrolo[3,2-b]pyridine-2-carboxamide] | 29 | 5450
CN(C(=O)c1cc2nc(N)c3c(c2[nH]1)COC3)[C@@H]1COC2(CC2)c2cc(C(F)(F)F)ccc21 [Example 91, (S)-5-amino-N-methyl-N-(7′-(trifluoromethyl)spiro[cyclopropane-1,1′-isochroman]-4′-yl)-6,8-dihydro-1H-furo[3,4-d]pyrrolo[3,2-b]pyridine-2-carboxamide] | 32 | 3880
CN(C(=O)c1[nH]c2c3c(c(N)nc2c1C#N)COC3)[C@@H]1COCc2cc(C(F)(F)F)ccc21 [Example 92, (S)-5-amino-3-cyano-N-methyl-N-(7-(trifluoromethyl)isochroman-4-yl)-6,8-dihydro-1H-furo[3,4-d]pyrrolo[3,2-b]pyridine-2-carboxamide] | 49 | 2050
CC[C@@H]1OC[C@@H](N(C)C(=O)c2cc3nc(N)c4c(c3[nH]2)COC4)c2ccc(C(F)(F)F)cc21 [Example 93, 5-amino-N-((1S,4S)-1-ethyl-7-(trifluoromethyl)isochroman-4-yl)-N-methyl-6,8-dihydro-1H-furo[3,4-d]pyrrolo[3,2-b]pyridine-2-carboxamide] | 165 | > 10000
CC[C@H]1OC[C@@H](N(C)C(=O)c2cc3nc(N)c4c(c3[nH]2)COC4)c2ccc(C(F)(F)F)cc21 [Example 94, 5-amino-N-((1R,4S)-1-ethyl-7-(trifluoromethyl)isochroman-4-yl)-N-methyl-6,8-dihydro-1H-furo[3,4-d]pyrrolo[3,2-b]pyridine-2-carboxamide] | 3.8 | 578
CN(C(=O)c1cc2nc(N)c3c(c2[nH]1)COC3)[C@@H]1COCc2cc(C3CC3)cc(F)c21 [Example 95, (S)-5-amino-N-(7-cyclopropyl-5-fluoroisochroman-4-yl)-N-methyl-6,8-dihydro-1H-furo[3,4-d]pyrrolo[3,2-b]pyridine-2-carboxamide] | 18 | 1780
CN(C(=O)c1cc2nc(N)c3c(c2[nH]1)COC3)[C@@H]1COCc2cc(Br)cc(F)c21 [Example 96, (S)-5-amino-N-(7-bromo-5-fluoroisochroman-4-yl)-N-methyl-6,8-dihydro-1H-furo[3,4-d]pyrrolo[3,2-b]pyridine-2-carboxamide] | 7.2 | 1930
CN(C(=O)c1cc2nc(N)c3c(c2[nH]1)COC3)[C@@H]1COCc2cc(C#N)cc(F)c21 [Example 97, (S)-5-amino-N-(7-cyano-5-fluoroisochroman-4-yl)-N-methyl-6,8-dihydro-1H-furo[3,4-d]pyrrolo[3,2-b]pyridine-2-carboxamide] | 17 | 2890
CC(=O)N1Cc2cc(C(F)(F)F)ccc2[C@H](N(C)C(=O)c2cc3nc(N)c4c(c3[nH]2)COC4)C1 [Example 98, (S)—N-(2-acetyl-7-(trifluoromethyl)-1,2,3,4-tetrahydroisoquinolin-4-yl)-5-amino-N-methyl-6,8-dihydro-1H-furo[3,4-d]pyrrolo[3,2-b]pyridine-2-carboxamide] | 11 | 1860
CC(=O)N1Cc2cc(C(F)(F)F)ccc2[C@@H](N(C)C(=O)c2cc3nc(N)c4c(c3[nH]2)COC4)C1 [Example 99, (R)—N-(2-acetyl-7-(trifluoromethyl)-1,2,3,4-tetrahydroisoquinolin-4-yl)-5-amino-N-methyl-6,8-dihydro-1H-furo[3,4-d]pyrrolo[3,2-b]pyridine-2-carboxamide] | 722 | > 10000
CN(C(=O)c1cc2nc(N)c3c(c2[nH]1)COC3)[C@@H]1CN(C(=O)C2CC2)Cc2cc(C(F)(F)F)ccc21 [Example 100, (S)-5-amino-N-(2-(cyclopropanecarbonyl)-7-(trifluoromethyl)-1,2,3,4-tetrahydroisoquinolin-4-yl)-N-methyl-6,8-dihydro-1H-furo[3,4-d]pyrrolo[3,2-b]pyridine-2-carboxamide] | 1.4 | 136
CN(C(=O)c1cc2nc(N)c3c(c2[nH]1)COC3)[C@H]1CN(C(=O)C2CC2)Cc2cc(C(F)(F)F)ccc21 [Example 101, (R)-5-amino-N-(2-(cyclopropanecarbonyl)-7-(trifluoromethyl)-1,2,3,4-tetrahydroisoquinolin-4-yl)-N-methyl-6,8-dihydro-1H-furo[3,4-d]pyrrolo[3,2-b]pyridine-2-carboxamide] | 339 | 2090
CC(C)C(=O)N1Cc2cc(C(F)(F)F)ccc2[C@H](N(C)C(=O)c2cc3nc(N)c4c(c3[nH]2)COC4)C1 [Example 102, (S)-5-amino-N-(2-isobutyryl-7-(trifluoromethyl)-1,2,3,4-tetrahydroisoquinolin-4-yl)-N-methyl-6,8-dihydro-1H-furo[3,4-d]pyrrolo[3,2-b]pyridine-2-carboxamide] | 1.1 | 77
CC(C)C(=O)N1Cc2cc(C(F)(F)F)ccc2[C@@H](N(C)C(=O)c2cc3nc(N)c4c(c3[nH]2)COC4)C1 [Example 103, (R)-5-amino-N-(2-isobutyryl-7-(trifluoromethyl)-1,2,3,4-tetrahydroisoquinolin-4-yl)-N-methyl-6,8-dihydro-1H-furo[3,4-d]pyrrolo[3,2-b]pyridine-2-carboxamide] | 272 | 2450
CN(C(=O)c1cc2nc(N)c3c(c2[nH]1)COC3)[C@@H]1COCc2cc(-c3cccnc3)ccc21 [Example 104, (S)-5-amino-N-methyl-N-(7-(pyridin-3-yl)isochroman-4-yl)-6,8-dihydro-1H-furo[3,4-d]pyrrolo[3,2-b]pyridine-2-carboxamide] | 18 | 2730
CCC(CC)N(Cc1c(F)cc(C2CC2)cc1F)C(=O)c1cc2nc(N)c3c(c2[nH]1)COC3 [Example 105, 5-amino-N-(4-cyclopropyl-2,6-difluorobenzyl)-N-(pentan-3-yl)-6,8-dihydro-1H-furo[3,4-d]pyrrolo[3,2-b]pyridine-2-carboxamide] | 13 | 930
CC(C)N(Cc1ccc(C2CC2)cn1)C(=O)c1cc2nc(N)c3c(c2[nH]1)CO[C@@H]3C [Example 106, (R)-5-amino-N-((5-cyclopropylpyridin-2-yl)methyl)-N-isopropyl-6-methyl-6,8-dihydro-1H-furo[3,4-d]pyrrolo[3,2-b]pyridine-2-carboxamide] | 11 | 2630
CC[C@@H](C)N(Cc1ccc(C2CCC2)cn1)C(=O)c1cc2nc(N)c3c(c2[nH]1)COC3 [Example 107, (R)-5-amino-N-(sec-butyl)-N-((5-cyclobutylpyridin-2-yl)methyl)-6,8-dihydro-1H-furo[3,4-d]pyrrolo[3,2-b]pyridine-2-carboxamide] | 20 | 1090
CC[C@@H](C)N(Cc1ccc(C2CC2)c(C)n1)C(=O)c1cc2nc(N)c3c(c2[nH]1)COC3 [Example 108, (R)-5-amino-N-(sec-butyl)-N-((5-cyclopropyl-6-methylpyridin-2-yl)methyl)-6,8-dihydro-1H-furo[3,4-d]pyrrolo[3,2-b]pyridine-2-carboxamide] | 31 | 3420
CCC(CC)N(Cc1cc(C)c(C2CC2)cn1)C(=O)c1cc2nc(N)c3c(c2[nH]1)COC3 [Example 109, 5-amino-N-((5-cyclopropyl-4-methylpyridin-2-yl)methyl)-N-(pentan-3-yl)-6,8-dihydro-1H-furo[3,4-d]pyrrolo[3,2-b]pyridine-2-carboxamide] | 24 | 1790
CCN(C(=O)c1cc2nc(N)c3c(c2[nH]1)COC3)[C@H](C)c1ncc(C(F)(F)F)cc1F [Example 110, (R)-5-amino-N-ethyl-N-(1-(3-fluoro-5-(trifluoromethyl)pyridin-2-yl)ethyl)-6,8-dihydro-1H-furo[3,4-d]pyrrolo[3,2-b]pyridine-2-carboxamide] | 12 | 2490
CCN(C(=O)c1cc2nc(N)c3c(c2[nH]1)COC3)[C@@H](C)c1ncc(C(F)(F)F)cc1F [Example 111, (S)-5-amino-N-ethyl-N-(1-(3-fluoro-5-(trifluoromethyl)pyridin-2-yl)ethyl)-6,8-dihydro-1H-furo[3,4-d]pyrrolo[3,2-b]pyridine-2-carboxamide] | 2200 | > 10000
CCN(C(=O)c1cc2nc(N)c3c(c2[nH]1)COC3)[C@H](C)c1ccc(C2CC2)cn1 [Example 112, (R)-5-amino-N-(1-(5-cyclopropylpyridin-2-yl)ethyl)-N-ethyl-6,8-dihydro-1H-furo[3,4-d]pyrrolo[3,2-b]pyridine-2-carboxamide] | 59 | > 10000
CCN(C(=O)c1cc2nc(N)c3c(c2[nH]1)COC3)[C@@H](C)c1ccc(C2CC2)cn1 [Example 113, (S)-5-amino-N-(1-(5-cyclopropylpyridin-2-yl)ethyl)-N-ethyl-6,8-dihydro-1H-furo[3,4-d]pyrrolo[3,2-b]pyridine-2-carboxamide] | 1610 | > 10000
CCN(C(=O)c1cc2nc(N)c3c(c2[nH]1)COC3)[C@@H](C)c1ccc(C(F)(F)F)cn1 [Example 114, (S)-5-amino-N-ethyl-N-(1-(5-(trifluoromethyl)pyridin-2-yl)ethyl)-6,8-dihydro-1H-furo[3,4-d]pyrrolo[3,2-b]pyridine-2-carboxamide] | 3630 | > 10000
